The results in this text go back to patent US20260071117A1, “FUNABLE FLUORESCENT COMPOUNDS AND USES THEREOF” (Arizona Board of Regents on Behalf of the University of …, priority 2021, published 2026).

Where “and” joins values, the source holds several entries; their conditions need not be identical. Identical values can stand only once.

A short description of the data set: Absorbance and fluorescence measurements (excitation maximum, emission maximum, quantum yield vs coumarin 151). The class given is physicochemical. On the set-up: key to Quantum Yield: fraction relative to coumarin 151 in ethanol standard. The following applies: for λex: absorbance/excitation maximum; for Quantum Yield: coumarin 151 in ethanol as standard; for λem: emission maximum. From the text: All reagents and solvents were acquired from commercially available suppliers and used without further purification. Methanol(dried on molecular sieves-Acroseal) was obtained from Acros. […] 1H and 13C NMR spectra were obtained on a Bruker NMR spectrometer at 500/400 and 125/100 MHz respectively. The data is reported as follows: chemical shift in ppm (δ), multiplicity (s=singlet, d=doublet, dd=doublet of doublets, t=triplet, dt=doublet of triplets, td=triplet of doublets, q=quartet, p=pentet, m=multiplet). Coupling constants are reported in Hertz (Hz) and were automatically generated using known NMR analyzer software (MestReNova), these were then subsequently curated. High-resolution mass spectra were obtained using the positive ESI method for all the compounds, obtained in an Ion Cyclotron Resonance (ICR) spectrometer. Absorbance spectra were obtained using an Agilent 8453 UV-visible spectroscopy system. Fluorescence was measured on a Varian (Agilent) Cary Eclipse Fluorimeter. Quantum yield measurements were calculated and reported using coumarin 151 in ethanol as a standard.^1 Fluorescence scans were obtained using a 2.5 mm slit width unless otherwise noted.
The fluorescence was also measured in different solvents to examine the solvent effects.

[1] abbreviates: 2.5 mm slit width, measurements run with methanol.

“2-(3,4,5-trimethoxyphenyl)imidazo[1,2-a]pyridin-3-amine [Compound 10a]”: the λex (measurements run with methanol) was determined as 343 nm. Under setting [1], the “Quantum Yield” value stood at 0.36 and the λem was determined as 474 nm.

`Nc1c(-c2ccc3ccccc3c2)nc2cccnn12` [Compound 10ab, 2-(naphthalen-2-yl)imidazo[1,2-b]pyridazin-3-amine]: under “measurements run with methanol”, the λex is 438 nm. Under setting [1], the “Quantum Yield” value is 0.04 and the λem came out at 543 nm.

The compound `COc1ccc(-c2nc3cccnn3c2N)cc1` [Compound 10ac, 2-(4-methoxyphenyl)imidazo[1,2-b]pyridazin-3-amine] showed a λex (measurements run with methanol) of 435 nm. For the same compound, under setting [1], the “Quantum Yield” value worked out at 0.03 and the λem was 543 nm.

For the setting “measurements run with methanol”, `COc1cc(-c2nc3cccnn3c2N)cc(OC)c1OC` [Compound 10ad, 2-(3,4,5-trimethoxyphenyl)imidazo[1,2-b]pyridazin-3-amine] registered a λex of 429 nm. Further, under setting [1], the “Quantum Yield” value was found to be 0.03 and the λem came to 541 nm.

Consider `COc1ccc(-c2nc3cccnn3c2N)c(OC)c1` [Compound 10ae, 2-(2,4-dimethoxyphenyl)imidazo[1,2-b]pyridazin-3-amine], for which the λex (measurements run with methanol) turned out to be 433 nm. Under setting [1], the “Quantum Yield” value is reported as 0.02 and the λem was found to be 555 nm.

`Nc1c(-c2ccc(N(c3ccccc3)c3ccccc3)cc2)nc2cccnn12` [Compound 10af, 2-(4-(diphenylamino)phenyl)imidazo[1,2-b]pyridazin-3-amine]: the λex (measurements run with methanol) is 438 nm. Further, under setting [1], the “Quantum Yield” value was 0.05 and the λem came to 544 nm.

The compound `CCN(CC)c1ccc(-c2nc3cccnn3c2N)cc1` [Compound 10ag, 2-(4-(diethylamino)phenyl)imidazo[1,2-b]pyridazin-3-amine] showed a λex (measurements run with methanol) of 444 nm. Further, under setting [1], the “Quantum Yield” value was 0.06 and the λem amounted to 572 nm.

As for `COC(=O)c1ccn2c(N)c(-c3ccccc3)nc2c1` [Compound 10ah, methyl 3-amino-2-phenylimidazo[1,2-a]pyridine-7-carboxylate], the λex (measurements run with methanol) is 394 nm. Besides, under setting [1], the “Quantum Yield” value is listed as 0.40 and the λem was 510 nm.

`COC(=O)c1ccn2c(N)c(-c3ccc4ccccc4c3)nc2c1` [Compound 10ai, methyl 3-amino-2-(naphthalen-2-yl)imidazo[1,2-a]pyridine-7-carboxylate] showed a λex (measurements run with methanol) of 434 nm. Moreover, under setting [1], the “Quantum Yield” value worked out at 0.47 and the λem is on record as 512 nm.

With `COC(=O)c1ccn2c(N)c(-c3ccc(-c4ccccc4)cc3)nc2c1` [Compound 10aj, methyl 2-([1,1′-biphenyl]-4-yl)-3-aminoimidazo[1,2-a]pyridine-7-carboxylate], the λex (measurements run with methanol) was 403 nm. Further, under setting [1], the “Quantum Yield” value came out at 0.45 and the λem came to 517 nm.

For the compound `COC(=O)c1ccn2c(N)c(-c3ccc(OC)cc3)nc2c1` [Compound 10ak, methyl 3-amino-2-(4-methoxyphenyl)imidazo[1,2-a]pyridine-7-carboxylate], the λex (measurements run with methanol) came to 394 nm. For the same compound, under setting [1], the “Quantum Yield” value was 0.40 and the λem is 510 nm.

`COC(=O)c1ccn2c(N)c(-c3cc(OC)c(OC)c(OC)c3)nc2c1` [Compound 10al, methyl 3-amino-2-(3,4,5-trimethoxyphenyl)imidazo[1,2-a]pyridine-7-carboxylate] showed a λex (measurements run with methanol) of 399 nm. Under setting [1], the “Quantum Yield” value amounted to 0.51 and the λem is 512 nm.

In turn, `COC(=O)c1ccn2c(N)c(-c3ccc(OC)cc3OC)nc2c1` [Compound 10am, methyl 3-amino-2-(2,4-dimethoxyphenyl)imidazo[1,2-a]pyridine-7-carboxylate] displayed a λex (measurements run with methanol) of 402 nm. Also, under setting [1], the “Quantum Yield” value was 0.49 and the λem is listed as 519 nm.

`COC(=O)c1ccn2c(N)c(-c3ccc(N(c4ccccc4)c4ccccc4)cc3)nc2c1` [Compound 10an, methyl 3-amino-2-(4-(diphenylamino)phenyl)imidazo[1,2-a]pyridine-7-carboxylate] returned a λex (measurements run with methanol) of 430 nm. Under setting [1], the “Quantum Yield” value is given as 0.44 and the λem was determined as 529 nm.

Regarding `CCN(CC)c1ccc(-c2nc3cc(C(=O)OC)ccn3c2N)cc1` [Compound 10ao, methyl 3-amino-2-(4-(diethylamino)phenyl)imidazo[1,2-a]pyridine-7-carboxylate], under “measurements run with methanol”, the λex is recorded as 432 nm. For the same compound, under setting [1], the “Quantum Yield” value worked out at 0.25 and the λem is 540 nm.

On to `CC(C)(C)Nc1c(-c2ccc(-c3nc4ccccn4c3NC(C)(C)C)cc2)nc2ccccn12` [Compound 10ap, 2,2′-(1,4-phenylene)bis(N-(tert-butyl)imidazo[1,2-a]pyridin-3-amine)], for which the λex (measurements run with methanol) amounted to 344 nm. Also, under setting [1], the “Quantum Yield” value came out at 0.30 and the λem is 458 nm.

On to `COc1ccc(-c2nc3ccc(-c4ccccc4)cn3c2N)cc1` [Compound 10ar, 2-(4-methoxyphenyl)-6-phenylimidazo[1,2-a]pyridin-3-amine], for which, under “measurements run with methanol”, the λex came to 350 nm. For the same compound, under setting [1], the “Quantum Yield” value is 0.09 and the λem came out at 510 nm.

`COc1ccc(-c2nc3ccc(N4CCCCC4)cn3c2N)cc1` [Compound 10as, 2-(4-methoxyphenyl)-6-(piperidin-1-yl)imidazo[1,2-a]pyridin-3-amine]: the λex (measurements run with methanol) is given as 341 nm. Also, under setting [1], the “Quantum Yield” value was 0.07 and the λem is 479 nm.

As to `COc1ccc(-c2nc3cc(OC)ccn3c2N)cc1` [Compound 10at, 7-methoxy-2-(4-methoxyphenyl)imidazo[1,2-a]pyridin-3-amine], where the note is “measurements run with methanol”, the λex was 344 nm. Besides, under setting [1], the “Quantum Yield” value amounted to 0.10 and the λem was 500 nm.

For the setting “measurements run with methanol”, `COc1ccn2c(N)c(-c3ccc([N+](=O)[O-])cc3)nc2c1` [Compound 10au, 7-methoxy-2-(4-nitrophenyl)imidazo[1,2-a]pyridin-3-amine] came in with a λex of 360 nm.

`N#Cc1ccc(-c2nc3ccc(N4CCCCC4)cn3c2N)cc1` [Compound 10av, 4-(3-amino-6-(piperidin-1-yl)imidazo[1,2-a]pyridin-2-yl)benzonitrile] returned a λex (measurements run with methanol) of 375 nm. Besides, under setting [1], the “Quantum Yield” value stood at 0.03 and the λem worked out at 482 nm.

Take `Nc1c(-c2ccc([N+](=O)[O-])cc2)nc2ccc(N3CCCCC3)cn12` [Compound 10aw, 2-(4-nitrophenyl)-6-(piperidin-1-yl)imidazo[1,2-a]pyridin-3-amine]: the λex (measurements run with methanol) is 390 nm.

`COc1cc(-c2nc3cc(-c4ccncc4)ccn3c2N)cc(OC)c1OC` [Compound 10ax, 7-(pyridin-4-yl)-2-(3,4,5-trimethoxyphenyl)imidazo[1,2-a]pyridin-3-amine] came in with a λex (measurements run with methanol) of 392 nm. Further, under setting [1], the “Quantum Yield” value was 0.23 and the λem came out at 545 nm.

Under “measurements run with methanol”, `CCN(CC)c1ccc(-c2nc3cc(-c4ccncc4)ccn3c2N)cc1` [Compound 10ay, 2-(4-(diethylamino)phenyl)-7-(pyridin-4-yl)imidazo[1,2-a]pyridin-3-amine] gave a λex of 435 nm. Under setting [1], the “Quantum Yield” value is 0.06 and the λem is given as 581 nm.

Regarding `COc1cc(-c2nc3cc([N+](=O)[O-])ccn3c2N)cc(OC)c1OC` [Compound 10az, 7-nitro-2-(3,4,5-trimethoxyphenyl)imidazo[1,2-a]pyridin-3-amine], the “Quantum Yield” value (10 mm slit) amounted to 0.11. For the setting “measurements run with methanol”, this compound showed a λex of 485 nm. Under “10 mm slit width”, this compound gave a λem of 651 nm.

In turn, `COc1cccc(-c2nc3ccccn3c2N)c1OC` [Compound 10b, 2-(2,3-dimethoxyphenyl)imidazo[1,2-a]pyridin-3-amine] returned a λex (measurements run with methanol) of 341 nm. For the same compound, under setting [1], the “Quantum Yield” value is reported as 0.40 and the λem came out at 471 nm.

Regarding `CCN(CC)c1ccc(-c2nc3cc([N+](=O)[O-])ccn3c2N)cc1` [Compound 10ba, 2-(4-(diethylamino)phenyl)-7-nitroimidazo[1,2-a]pyridin-3-amine], the “fluorescence (observation in words)” value is “fluorescence intensity is low”. Moreover, the “Quantum Yield” value (10 mm slit) was determined as 0.09. Under “measurements run with methanol”, this compound came in with a λex of 550 nm. Where the note is “10 mm slit width”, this compound came in with a λem of 720 nm.

Consider `COc1cc(-c2nc3ccccn3c2N)cc(OC)c1OC` [Compound 10c, 2-(3,4,5-trimethoxyphenyl)imidazo[1,2-a]pyridin-3-amine], for which the λex (measurements run with methanol) is 343 nm. Besides, under setting [1], the “Quantum Yield” value stood at 0.38 and the λem came out at 472 nm.

For the compound `COc1cc(OC)cc(-c2nc3ccccn3c2N)c1` [Compound 10d, 2-(3,5-dimethoxyphenyl)imidazo[1,2-a]pyridin-3-amine], where the note is “measurements run with methanol”, the λex is 344 nm. For the same compound, under setting [1], the “Quantum Yield” value is listed as 0.35; the λem was 473 nm and 478 nm.

On to `Nc1c(-c2ccc3ccccc3c2)nc2ccccn12` [Compound 10e, 2-(naphthalen-2-yl)imidazo[1,2-a]pyridin-3-amine], for which the λex (measurements run with methanol) was 345 nm. Under setting [1], the “Quantum Yield” value is given as 0.28 and the λem turned out to be 475 nm.
